Source: ChEMBL document CHEMBL1149215, “Chemoenzymatic synthesis and binding affinity of novel (R)- and (S)-3-aminomethyl-1-tetralones, potential atypical antipsychotics” (Bioorg Med Chem Lett, 2004)

How the values were obtained:
[1] = biological target: 5-hydroxytryptamine receptor 2A (Homo sapiens, UniProt P28223)
Description: Binding affinity towards serotonin 5-hydroxytryptamine 2A receptor

[2] = biological target: T1, 5-hydroxytryptamine receptor 2C (Homo sapiens, UniProt P28335)
T1 sequence (P28335 whole entry): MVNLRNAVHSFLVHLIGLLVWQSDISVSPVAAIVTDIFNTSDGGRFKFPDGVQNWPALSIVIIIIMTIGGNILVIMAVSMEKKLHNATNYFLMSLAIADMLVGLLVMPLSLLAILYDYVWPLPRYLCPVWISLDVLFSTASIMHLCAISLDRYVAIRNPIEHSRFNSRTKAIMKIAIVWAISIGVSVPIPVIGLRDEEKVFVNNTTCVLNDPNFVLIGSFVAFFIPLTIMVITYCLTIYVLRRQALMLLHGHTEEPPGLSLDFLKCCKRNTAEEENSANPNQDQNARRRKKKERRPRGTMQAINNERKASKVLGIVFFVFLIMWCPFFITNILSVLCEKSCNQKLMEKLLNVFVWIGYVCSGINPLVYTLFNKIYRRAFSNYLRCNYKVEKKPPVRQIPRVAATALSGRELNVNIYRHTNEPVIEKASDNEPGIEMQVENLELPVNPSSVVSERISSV
Description: Binding affinity towards serotonin 5-hydroxytryptamine 2C receptor

Chain of 5-hydroxytryptamine receptor 2A (P28223 whole entry): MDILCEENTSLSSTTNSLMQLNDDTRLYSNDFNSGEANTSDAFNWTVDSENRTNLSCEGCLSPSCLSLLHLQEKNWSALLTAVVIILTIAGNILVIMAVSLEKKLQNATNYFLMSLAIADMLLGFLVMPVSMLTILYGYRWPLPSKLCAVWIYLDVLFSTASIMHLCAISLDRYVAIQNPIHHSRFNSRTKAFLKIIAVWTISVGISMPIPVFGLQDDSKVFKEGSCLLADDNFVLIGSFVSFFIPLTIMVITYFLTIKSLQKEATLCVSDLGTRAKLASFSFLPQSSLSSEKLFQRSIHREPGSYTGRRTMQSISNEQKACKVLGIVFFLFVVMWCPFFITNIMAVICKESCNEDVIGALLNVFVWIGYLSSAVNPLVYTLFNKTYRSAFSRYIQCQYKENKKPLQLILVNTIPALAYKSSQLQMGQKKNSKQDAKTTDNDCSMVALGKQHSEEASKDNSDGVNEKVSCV

| Structure (SMILES) | Ki [1] [nM] | Ki [2] [nM] |
| --- | --- | --- |
| COc1ccc2c(c1)CC(CN1CCN(c3ccccn3)CC1)CC2=O (racemic) | 692 | 4570 |
| COc1ccc2c(c1)CC(CN1CCC(C(=O)c3ccc(F)cc3)CC1)CC2=O (racemic) | 17.8 | 1170 |
| COc1cc2c(cc1OC)C(=O)CC(CN1CCN(c3ccccn3)CC1)C2 (racemic) | 661 | > 10000 |
| O=C1CC(CN2CCC(c3noc4cc(F)ccc34)CC2)Cc2ccccc21 (stereo in doubt; (+)-7d) | 29.5 | 661 |
| COc1ccccc1N1CCN(CC2CC(=O)c3ccccc3C2)CC1 (racemic) | 513 | – |
| O=C1CC(CN2CCC(C(=O)c3ccc(F)cc3)CC2)Cc2ccccc21 (stereo in doubt; (+)-7c) | 23.4 | 490 |
| COc1ccc2c(c1)CC(CN1CCC(C(=O)c3ccc(F)cc3)CC1)CC2=O (single isomer, unassigned; (-)) | 16.2 | 977 |
| COc1ccc2c(c1)CC(CN1CCC(c3noc4cc(F)ccc34)CC1)CC2=O (racemic) | – | 1620 |
| COc1ccc2c(c1)CC(CN1CCC(C(=O)c3ccc(F)cc3)CC1)CC2=O (single isomer, unassigned; (+)) | 11.2 | 1100 |
| COc1ccc2c(c1)CC(CN1CCC(c3noc4cc(F)ccc34)CC1)CC2=O (single isomer, unassigned; (-)) | 26.3 | 832 |
| COc1cc2c(cc1OC)C(=O)CC(CN1CCC(c3noc4cc(F)ccc34)CC1)C2 (racemic) | 9.55 | – |
| O=C1CC(CN2CCC(C(=O)c3ccc(F)cc3)CC2)Cc2ccccc21 (racemic) | 13.2 | 501 |
| COc1ccc2c(c1)CC(CN1CCN(c3ccccc3OC)CC1)CC2=O (racemic) | 891 | 46.8 |
| O=C1CC(CN2CCN(c3ccccn3)CC2)Cc2ccccc21 (racemic) | 977 | 3310 |
| COc1cc2c(cc1OC)C(=O)CC(CN1CCN(c3ccccc3OC)CC1)C2 (racemic) | 2340 | > 10000 |
| COc1cc2c(cc1OC)C(=O)CC(CN1CCC(C(=O)c3ccc(F)cc3)CC1)C2 (single isomer, unassigned; (+)) | 43.7 | 575 |

Results, then the molecule that gave them:

| Ki [1] [nM] | Ki [2] [nM] | Structure (SMILES) |
| --- | --- | --- |
| 5.62 | 166 | COc1cc2c(cc1OC)C(=O)CC(CN1CCC(C(=O)c3ccc(F)cc3)CC1)C2 (single isomer, unassigned; (-)) |
| 6.03 | 83.2 | COc1cc2c(cc1OC)C(=O)CC(CN1CCC(C(=O)c3ccc(F)cc3)CC1)C2 (racemic) |
| 1.48 | 513 | COc1ccc2c(c1)CC(CN1CCC(c3noc4cc(F)ccc34)CC1)CC2=O (single isomer, unassigned; (+)) |
| 2.69 | 129 | O=C1CC(CN2CCC(c3noc4cc(F)ccc34)CC2)Cc2ccccc21 (racemic) |
| 5.89 | 776 | O=C1CC(CN2CCC(C(=O)c3ccc(F)cc3)CC2)Cc2ccccc21 (stereo in doubt; (-)-7c) |
| 6.31 | 832 | O=C1CC(CN2CCC(c3noc4cc(F)ccc34)CC2)Cc2ccccc21 (stereo in doubt; (-)-7d) |
| 7.24 | – | COc1cc2c(cc1OC)C(=O)CC(CN1CCC(c3noc4cc(F)ccc34)CC1)C2 (stereo in doubt; (-)-9d) |
